# Experimental data: ChEMBL document CHEMBL1201862, “PubChem BioAssay data set” (2004)
#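 Assay format: 96-well plates, 48-hour exposure. GI50: concentration for 50% inhibition of growth.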 Calls of active or inactive are those of the source. Rule as the data show it: active = GI50 up to about 1.1 µM and inactive = higher.
# What was measured:
# Assay in all cases: inhibition of tumour cell growth, NCI panel, 48 h
# [1] = tested on: SNB-19
# [2] = tested on: SR
# [3] = tested on: CAKI-1
# [4] = tested on: NCI-H226
# [5] = tested on: SF-295
# [6] = tested on: HCT-116
# [7] = tested on: K562
# [8] = tested on: CCRF-CEM
# [9] = tested on: Malme-3M
# [10] = tested on: OVCAR-5
# [11] = tested on: LOX IMVI
# [12] = tested on: DLD-1
# [13] = tested on: HCC 2998
# [14] = tested on: HOP-92
# [15] = tested on: IGROV-1
# [16] = tested on: BT-549
# [17] = tested on: MCF7
# [18] = tested on: MDA-N
# [19] = tested on: MDA-MB-435
# [20] = tested on: Hs-578T
SMILES,GI50 [1],GI50 [2],GI50 [3],GI50 [4],GI50 [5],GI50 [6],GI50 [7],GI50 [8],GI50 [9],GI50 [10],GI50 [11],GI50 [12],GI50 [13],GI50 [14],GI50 [15],GI50 [16],GI50 [17],GI50 [18],GI50 [19],GI50 [20]
Cn1cc/c(=N\N=c2/ccn(C)c3ccccc23)c2ccccc21,16.9 µM (inactive),16.4 µM (inactive),17.9 µM (inactive),11.7 µM (inactive),16.1 µM (inactive),11.1 µM (inactive),4.44 µM (inactive),6.31 µM (inactive),17.2 µM (inactive),15.8 µM (inactive),11.9 µM (inactive),14.7 µM (inactive),15.8 µM (inactive),–,–,–,–,–,–,–
CCOC(=O)C(C)c1c(C(=O)c2ccc(C)nc2)c2ccccc2n1C (stereo not given),–,–,> 100 µM (inactive),–,> 100 µM (inactive),–,> 100 µM (inactive),> 100 µM (inactive),> 100 µM (inactive),> 100 µM (inactive),> 100 µM (inactive),> 100 µM (inactive),> 100 µM (inactive),82.8 µM (inactive),> 100 µM (inactive),–,–,–,–,–
CC(C)C(C/C=C1\CC(CO)(COC(=O)C(C)(C)C)OC1=O)C(C)C (stereo not given),13 µM (inactive),11.5 µM (inactive),8.73 µM (inactive),5.12 µM (inactive),4.06 µM (inactive),10.5 µM (inactive),0.942 µM (active),10.6 µM (inactive),10.7 µM (inactive),10.5 µM (inactive),2.88 µM (inactive),–,7.03 µM (inactive),10.3 µM (inactive),14.3 µM (inactive),11.5 µM (inactive),20.7 µM (inactive),4.97 µM (inactive),11.9 µM (inactive),2.5 µM (inactive)
Cc1ccc([S@+]([O-])c2occc2C=O)cc1,5.07 µM (inactive),1.71 µM (inactive),17.1 µM (inactive),19.4 µM (inactive),17.7 µM (inactive),3.03 µM (inactive),1.85 µM (inactive),1.64 µM (inactive),3.7 µM (inactive),19.2 µM (inactive),1.81 µM (inactive),–,14.5 µM (inactive),3.27 µM (inactive),11.7 µM (inactive),12 µM (inactive),3.48 µM (inactive),4.44 µM (inactive),7.55 µM (inactive),16.4 µM (inactive)
Fc1ccc(N2C(=S)SC(=N\c3ccccc3)/C2=N/c2ccccc2)cc1,> 100 µM (inactive),25.1 µM (inactive),> 100 µM (inactive),> 100 µM (inactive),> 100 µM (inactive),17.5 µM (inactive),14.9 µM (inactive),25.9 µM (inactive),> 42.9 µM (inactive),> 85.3 µM (inactive),> 100 µM (inactive),–,> 100 µM (inactive),> 42.8 µM (inactive),> 43.8 µM (inactive),> 100 µM (inactive),> 73.8 µM (inactive),> 100 µM (inactive),> 100 µM (inactive),81.3 µM (inactive)
Cc1nc([N+](=O)[O-])cn1CC(=N)N,> 100 µM (inactive),> 100 µM (inactive),–,> 100 µM (inactive),> 100 µM (inactive),> 100 µM (inactive),> 100 µM (inactive),> 100 µM (inactive),> 100 µM (inactive),–,> 100 µM (inactive),> 100 µM (inactive),> 100 µM (inactive),–,> 100 µM (inactive),–,–,–,–,–
OCCN(CCO)CCn1cnc2c(NCc3ccccc3)ncnc21,> 100 µM (inactive),> 100 µM (inactive),> 100 µM (inactive),> 100 µM (inactive),> 100 µM (inactive),> 100 µM (inactive),> 100 µM (inactive),> 100 µM (inactive),> 100 µM (inactive),> 100 µM (inactive),> 100 µM (inactive),–,> 100 µM (inactive),> 100 µM (inactive),> 100 µM (inactive),> 100 µM (inactive),> 100 µM (inactive),> 100 µM (inactive),> 100 µM (inactive),> 100 µM (inactive)
Cc1cc(N(CCC#N)CCC#N)ccc1/N=N/c1ccc(S(N)(=O)=O)cc1,> 100 µM (inactive),–,28.4 µM (inactive),> 100 µM (inactive),> 100 µM (inactive),–,> 100 µM (inactive),> 100 µM (inactive),> 100 µM (inactive),> 100 µM (inactive),> 100 µM (inactive),> 100 µM (inactive),> 100 µM (inactive),–,> 100 µM (inactive),–,–,–,–,–
CCOC(=O)C1=C(NC)OC/C1=N\NC(=O)c1ccccc1O,12.7 µM (inactive),–,17.1 µM (inactive),13.3 µM (inactive),50.9 µM (inactive),9.29 µM (inactive),18.6 µM (inactive),14.9 µM (inactive),26.9 µM (inactive),48.3 µM (inactive),15.2 µM (inactive),17.6 µM (inactive),25.1 µM (inactive),26.1 µM (inactive),7.21 µM (inactive),–,–,–,–,–
CCOC(=O)c1cn2c(n1)sc1cc(F)ccc12,> 100 µM (inactive),16.1 µM (inactive),> 100 µM (inactive),> 100 µM (inactive),74.8 µM (inactive),50.6 µM (inactive),> 100 µM (inactive),> 100 µM (inactive),> 100 µM (inactive),25.2 µM (inactive),80.7 µM (inactive),–,> 100 µM (inactive),> 100 µM (inactive),> 100 µM (inactive),77.6 µM (inactive),46.9 µM (inactive),19.4 µM (inactive),42.3 µM (inactive),64.3 µM (inactive)
COc1ccc(NS(=O)(=O)c2ccc3ncn(NS(=O)(=O)c4ccc(I)cc4)c(=O)c3c2)cc1,> 100 µM (inactive),72.9 µM (inactive),> 100 µM (inactive),9.86 µM (inactive),> 100 µM (inactive),> 100 µM (inactive),7.26 µM (inactive),64.7 µM (inactive),> 100 µM (inactive),> 100 µM (inactive),8.77 µM (inactive),–,> 100 µM (inactive),> 100 µM (inactive),> 100 µM (inactive),> 10 µM (inactive),> 100 µM (inactive),> 100 µM (inactive),84.1 µM (inactive),> 100 µM (inactive)
C#C[C@]1(O)CCC2C3CCc4cc(Oc5nc(F)nc(-c6c7cc8ccccc8cc7c7n6CCS7)n5)ccc4C3CCC21C (stereo not given in full),> 100 µM (inactive),–,–,> 100 µM (inactive),34 µM (inactive),33 µM (inactive),37.7 µM (inactive),49.3 µM (inactive),53.6 µM (inactive),–,43 µM (inactive),54.6 µM (inactive),85.5 µM (inactive),> 100 µM (inactive),50.7 µM (inactive),–,–,–,–,–
CSC(SC)=C1Sc2cccc(Cl)c2S1,85.1 µM (inactive),–,43 µM (inactive),> 100 µM (inactive),56.5 µM (inactive),41.5 µM (inactive),23.9 µM (inactive),28.8 µM (inactive),> 100 µM (inactive),45.6 µM (inactive),42.6 µM (inactive),45.2 µM (inactive),15.8 µM (inactive),15.8 µM (inactive),> 100 µM (inactive),–,–,–,–,–
COc1cc2c3c(c1OC)/C(=N/OS(=O)(=O)c1ccc(C)cc1)CC3N(S(=O)(=O)c1ccc(C)cc1)CC2 (stereo not given),> 100 µM (inactive),–,> 100 µM (inactive),> 100 µM (inactive),> 100 µM (inactive),> 100 µM (inactive),> 100 µM (inactive),> 100 µM (inactive),> 100 µM (inactive),> 100 µM (inactive),> 100 µM (inactive),> 100 µM (inactive),> 100 µM (inactive),> 100 µM (inactive),> 100 µM (inactive),–,–,–,–,–
S=P1(c2ccccc2)Nc2ccc(Cl)cc2N1 (stereo not given),> 100 µM (inactive),–,32.6 µM (inactive),> 100 µM (inactive),> 100 µM (inactive),–,49.3 µM (inactive),4.45 µM (inactive),> 100 µM (inactive),> 100 µM (inactive),> 100 µM (inactive),> 100 µM (inactive),> 100 µM (inactive),20.2 µM (inactive),35.5 µM (inactive),–,–,–,–,–
Cc1[nH]c2ccccc2c1C1CC(=O)NC1=O (stereo not given),–,–,> 100 µM (inactive),> 100 µM (inactive),> 100 µM (inactive),> 100 µM (inactive),> 100 µM (inactive),> 100 µM (inactive),> 100 µM (inactive),> 100 µM (inactive),–,> 100 µM (inactive),> 100 µM (inactive),–,> 100 µM (inactive),–,–,–,–,–
O=C(Nc1cc([N+](=O)[O-])cc([N+](=O)[O-])c1)OC1C2CCC1C1OC1C2 (stereo not given),> 50 µM (inactive),–,–,–,> 50 µM (inactive),35.8 µM (inactive),> 50 µM (inactive),> 50 µM (inactive),22.9 µM (inactive),> 50 µM (inactive),–,> 50 µM (inactive),> 50 µM (inactive),> 50 µM (inactive),> 50 µM (inactive),–,–,–,–,–
CCC(CO)Nc1nc(NCc2ccccc2)c2ncn(C(C)C)c2n1 (stereo not drawn) [(RS)-ROSCOVITINE],34.9 µM (inactive),7.1 µM (inactive),17.4 µM (inactive),15 µM (inactive),19.3 µM (inactive),8.38 µM (inactive),46.6 µM (inactive),22.6 µM (inactive),25.7 µM (inactive),20.7 µM (inactive),16.5 µM (inactive),–,15.3 µM (inactive),17.2 µM (inactive),14.8 µM (inactive),18.5 µM (inactive),15.7 µM (inactive),30.3 µM (inactive),23.4 µM (inactive),4.58 µM (inactive)
